Experimental data taken from patent publication US9168243B2, “Pharmaceutical compositions comprising 8-substituted dibenzylbutyrolactone lignans” (priority 2010, dated 2015).
“Also recorded” adds a separate entry of the source.

Assays:
phospho-Akt(ser473) [1] = assay: Western blot of Akt / phospho-Akt(ser473); type: cell-based; conditions: LNCaP +/- 1 nM androgen; 0-100 μM lignan, 1 hour (NTG also 100 μM, 0-8 hours)
Procedure: Whole cell lysates were prepared by lysing floating and attached cells in Laemmli sample buffer and boiling the samples for 10 minutes. Proteins were separated by SDS-PAGE and transferred on PVDF membrane (Millipore). Western blotting was performed using antibodies against Akt, phospho-Akt (Ser473), GSK-3β, phospho-GSK-3β (Ser9) and phospho-EGF receptor Tyr(1068) (Cell Signalling Technology), Actin (clone AC-40; Sigma-Aldrich), PI3K p85α (clone 4/PI3-Kinase; BD Pharmingen), EGF receptor, Insulin receptor β and IGF-I receptor β (Santa Cruz Biotechnology), and Phospho-tyrosine (clone 4G10; Millipore). HRP-conjugated secondary antibodies were from Southern Biotechnology Associates, Promega, and Amersham Biosciences. The results were visualized using the ECL method (Amersham Biosciences) on x-ray film. The presented Western blot results are representative of at least three independent experiments. Densitometric analysis of Western blots was done using scanned films with the MCID M5+ software. The values were normalized to the untreated control sample, which was given the value 1. The histograms in FIG. 4 present a relative decrease in ratio of phosphorylated vs. non-phosphorylated protein compared to control cells.
LNCaP cells (+/−1 nM androgen) were treated with 0-100 μM enterolactone (ENL), matairesinol (MAT) or NTG for 1 hour prior to preparation of total cell lysates (FIG. 4A). The relative decrease in pAkt/Akt ratio was quantified from western blot analysis with Akt (60 kDa) and phospho-Akt(ser473) (Mean±SEM; n=4; Student's t-test *p<0.05, **p<0.01). Alternatively, androgen-deprived LNCaP cells were incubated with 100 μM NTG for 2 hours, fixed and labeled with Akt antibody followed by Alexa 546-conjugated secondary antibody. The samples were viewed at LSM 510 confocal microscope (63× oil objective, 543 nm excitation) (FIG. 4B). To examine the time-dependence of the observed inhibitory effect, LNCaP cells (+/−1 nM androgen) were incubated with 100 μM NTG for 0-8 hours after which total cell lysates were prepared. The western blot analysis with Akt, phospho-Akt(ser473), GSK-3β and phospho-GSK-3β(ser9) was quantified. The histogram presents a relative decrease in pAkt/Akt ratio (FIG. 4C.) or pGSK-3β/GSK-3β ratio (FIG. 4D.) compared to control cells (Mean±SEM; n=3). […]
Importantly, substitution with methyl group at position 8 further increases activity of dibenzylbutyrolactone lignans in sensitization of LNCaP prostate cancer cells to TRAIL-mediated apoptosis (FIG. 8). […] The samples were analyzed by flow cytometry and the fraction of sub-G0/G1 events (nuclear fragmentation) was detected as a measure of apoptotic cell death (mean±SEM; n=4). […]

[2] = system: LNCaP prostate cancer cells; assay: Flow cytometric screen for sensitization to TRAIL-induced apoptosis (nuclear fragmentation by propidium iodide, mitochondrial depolarization by TMRM); type: cell-based; conditions: for capacity to sensitize LNCaP prostate cancer cells to TRAIL-induced apoptosis: androgen-deprived, 40 μM lignan 1 hour before 10 ng/ml izTRAIL, 20 hours
Procedure: (§1) Flow cytometric analysis of apoptosis with HTS platform was performed on cells that were plated on a 96-well plate as triplicate samples. After 24 hours in androgen-deprived conditions, the cells were pretreated with 40 μM lignans or lignan derivatives for 1 hour prior to addition of 10 ng/ml izTRAIL. Twenty hours later the plate was centrifuged with a culture plate rotor (1000 rpm, 3 minutes). For analysis of nuclear fragmentation, propidium iodide (PI) buffer (40 mM Na-citrate, 0.3% Triton X-100, 50 μg/ml PI; Sigma) was added to the wells. After 10 minutes incubation at room temperature, the plate was analyzed with LSRII flow cytometer equipped with HTS platform (PE-A channel). The fraction of sub-G0/G1 events (nuclear fragmentation) was gated as a measure of apoptotic cell death. For detection of mitochondrial depolarization, the cells were detached by trypsinization of the cells and incubated in 20 nM tetramethylrhodamine (TMRM; Invitrogen) in warm culture medium for 10 minutes before analysis. The plate was analyzed with LSRII flow cytometer equipped with HTS platform (FSC, PE-A channel). The cells with decreased TMRM incorporation were considered to have undergone mitochondrial membrane depolarization. Activated caspase-3 in cells was labeled with phycerythrin (PE)-conjugated antibody according to manufacturer's protocol (BD Pharmingen) and analyzed by FacsCalibur flow cytometer (FL-2, FSC).
LNCaP cells were cultured in the absence of 1 nM androgen and incubated with lignan compounds (40 μM) for 1 hour before izTRAIL treatment (10 ng/ml) or control for 20 hours. The samples were screened for nuclear fragmentation by propidium iodide labeling (FIG. 1A) or mitochondrial depolarization by TMRM labeling (FIG. 1B). The plates were analyzed with LSRII flow cytometer equipped with HTS platform (FSC, PE-A channels). The fraction of sub-G0/G1 events (nuclear fragmentation; PE-A channel) was gated as a measure of apoptotic cell death (FIG. 1A) and the cells with decreased TMRM incorporation (PE-A channel) were considered to have undergone mitochondrial membrane depolarization (FIG. 1B). Representative histograms and dot blots for control, TRAIL, nortrachelogenin (NTG) and NTG+TRAIL treatments are viewed.
Importantly, substitution with methyl group at position 8 further increases activity of dibenzylbutyrolactone lignans in sensitization of LNCaP prostate cancer cells to TRAIL-mediated apoptosis (FIG. 8). LNCaP cells were cultured in the absence of 1 nM androgen and incubated with indicated lignan compounds (40 μM) for 1 hour before izTRAIL treatment (10 ng/ml) or control for 20 hours. The cells were disrupted and the nuclei labeled for DNA content with propidium iodide. The samples were analyzed by flow cytometry and the fraction of sub-G0/G1 events (nuclear fragmentation) was detected as a measure of apoptotic cell death (mean±SEM; n=4). (FIG. 8A). Alternatively, LNCaP cells (+/−1 nM androgen) were incubated with 0-100 μM 8-Me-MAT for 1 hour after which total cell lysates were prepared and the samples were analyzed by Western blotting for Akt and phospho-Akt(ser473) expression.

[3] = in vivo; cited from earlier work
phospho-Akt(ser473) [4] = conditions: reported earlier; cited from earlier work
LNCaP cells [5] = assay: Clonogenic assay; type: cell-based; conditions: 11 days; 10 ng/ml TRAIL or 40 μM NTG alone
Procedure: Five hundred LNCaP cells were plated in 1 ml of culture medium and let to adhere prior to addition of the indicated treatments. After 11 days of incubation, cell colonies were fixed with glutaraldehyde (6.0% v/v), stained with crystal violet (0.5% w/v) and imaged using a digital camera.
To investigate the effects of NTG alone and in combination with TRAIL on colony formation ability, the LNCaP cells were plated in low confluency and treated for 11 days.

LNCaP cells [6] = assay: Caspase-3 activation by flow cytometry, TRAIL with or without NTG; type: cell-based; conditions: TRAIL alone, 20 h
Procedure: as §1
As NTG was identified as the most efficient TRAIL-sensitizing lignan, we analyzed the ability of NTG to affect the efficacy of different TRAIL concentrations in triggering of caspase-3 activation (FIG. 2A). The TRAIL resistant LNCaP cells were cultured in androgen-supplied and androgen-deprived conditions to simulate the effects of androgen-deprivation therapy, and treated for 20 h with TRAIL alone or with the combination of 40 μM NTG and TRAIL. The percentage of cells with activated caspase-3 increased from maximum of 15% to 60% for androgen-deprived, and from 13% to 30% for androgen-supplied cells (Mean±SEM; n≧3) (FIG. 2A).

Question: Which “Akt phosphorylation (pAkt/Akt ratio)” value (phospho-Akt(ser473) [1]) does the source give for `COc1cc(CC2COC(=O)C2(C)Cc2ccc(O)c(OC)c2)ccc1O` (stereo not shown) [8-Me-MAT, 8-Methylmatairesinol] here?
Answer: strongly inhibitory effect on Akt phosphorylation; also recorded: inhibit Akt phosphorylation yet more efficiently than ENL or MAT

Question: What about the “capacity to sensitize LNCaP prostate cancer cells to TRAIL-induced apoptosis” value [2] of the same compound?
Answer: increased capacity to sensitize LNCaP prostate cancer cells to TRAIL-mediated apoptosis

Question: For `COc1cc(C[C@H]2COC(=O)[C@@H]2Cc2ccc(O)c(OC)c2)ccc1O` [MAT, Matairesinol, reference compound], which “conversion into the mammalian lignans” value [3] is on record?
Answer: converted to ENL in the digestive tract

Question: And the “increase of the apoptotic response compared to TRAIL alone (factor)” value ([2]; lignan in combination with TRAIL)?
Answer: 2.5

Question: And the “Akt phosphorylation in prostate cancer cells” value (phospho-Akt(ser473) [4])?
Answer: can reportedly inhibit Akt phosphorylation

Question: Which results are given for TRAIL?
Answer: colony formation ability, single agent (LNCaP cells [5]): not able to inhibit LNCaP growth; percentage of cells with activated caspase-3 (maximum) (LNCaP cells [6]; androgen-deprived LNCaP): 15%; percentage of cells with activated caspase-3 (maximum) (LNCaP cells [6]; androgen-supplied LNCaP): 13%

Question: Which “Akt phosphorylation in prostate cancer cells” value (phospho-Akt(ser473) [4]) does the source give for `O=C1OC[C@H](Cc2cccc(O)c2)[C@H]1Cc1cccc(O)c1` [ENL, Enterolactone] here?
Answer: can reportedly inhibit Akt phosphorylation

Question: For `COc1ccc(CC2COC(=O)C2(C)Cc2ccc(OC)c(OC)c2)cc1OC` (stereo not shown) [8-Me-dimethylmatairesinol, 8-Methyldimethylmatairesinol], which “capacity to sensitize LNCaP prostate cancer cells to TRAIL-induced apoptosis” value [2] is on record?
Answer: clearly enhances the activity
